{"source": "patent US8580861B2", "about": "“Chemical composition for skin care formulations” (Pibed Limited, priority 2008, dated 2013)", "origin": "cited, not measured here", "key": {"[1]": {"system": "Microsporum gypseum", "conditions": "M. gypseum"}, "[2]": {"system": "Microsporum gypseum", "conditions": "10% in Vaseline petroleum jelly, topical, daily for 3 weeks; for histopathologic examination of skin tissues: versus positive control"}, "[3]": {"system": "Staphylococcus aureus", "conditions": "low concentrations (0.5 to 2 mM), disk diffusion"}, "[4]": {"system": "Lactobacillus fermentum", "conditions": "flow cytometry"}, "[5]": {"system": "Escherichia coli"}}, "note": "Like-named read-outs stand apart in the source and are kept apart here."}
{"smiles": "C=CCc1ccc(O)c(OC)c1", "note": "[eugenol]", "values": [{"measurement": "MIC", "setting": "[1]", "result": "0.01-0.03%"}, {"measurement": "skin lesion scoring", "setting": "[2]", "result": "clinically effective at improving the lesion during the first week of application"}, {"measurement": "histopathologic examination of skin tissues", "setting": "[2]", "result": "lower degree of hyperkeratosis and inflammatory cell infiltration than the positive control"}]}
{"smiles": "CC(C)=CCC/C(C)=C/CC1CCCC1=O", "note": "(centres unmarked) [apritone]", "values": [{"measurement": "susceptibility to ciprofloxacin, clindamycin, erythromycin, gentamicin, tetracycline, and vancomycin", "setting": "[3]", "result": "enhanced the susceptibility of Staphylococcus aureus"}, {"measurement": "intracellular accumulation of ethidium bromide by live cells", "setting": "[4]", "result": "promoted the intracellular accumulation"}]}
{"smiles": "C=CC(C)(O)CCC=C(C)CCC=C(C)C", "note": "(centres unmarked) [nerolidol, 3,7,11-trimethyl1,6,10-dodecatrien-3-ol]", "values": [{"measurement": "susceptibility to ciprofloxacin, clindamycin, erythromycin, gentamicin, tetracycline, and vancomycin", "setting": "[3]", "result": "enhanced the susceptibility of Staphylococcus aureus"}, {"measurement": "sensitization to polymyxin B", "setting": "[5]", "result": "sensitized Escherichia coli to polymyxin B"}, {"measurement": "intracellular accumulation of ethidium bromide by live cells", "setting": "[4]", "result": "promoted the intracellular accumulation"}, {"measurement": "MIC", "setting": "[1]", "result": "0.5-2%"}, {"measurement": "hair culture test", "setting": "[2]", "result": "improved the skin lesions infected by M. gypseum"}, {"measurement": "skin lesion scoring", "setting": "[2]", "result": "clinically effective at improving the lesion during the first week of application"}, {"measurement": "histopathologic examination of skin tissues", "setting": "[2]", "result": "lower degree of hyperkeratosis and inflammatory cell infiltration than the positive control"}]}
{"smiles": "Clc1ccc(COC(Cn2ccnc2)c2ccc(Cl)cc2Cl)cc1", "note": "(centres unmarked) [econazole]", "values": [{"measurement": "MIC", "setting": "[1]; positive control", "result": "4 to 16", "unit": "µg/mL"}]}
{"smiles": "CC(C)=CCC[C@](C)(O)C1CC=C(C)CC1", "note": "(some centres unmarked) [bisabolol]", "values": [{"measurement": "susceptibility to ciprofloxacin, clindamycin, erythromycin, gentamicin, tetracycline, and vancomycin", "setting": "[3]", "result": "enhanced the susceptibility of Staphylococcus aureus"}, {"measurement": "intracellular accumulation of ethidium bromide by live cells", "setting": "[4]", "result": "promoted the intracellular accumulation"}]}
{"smiles": "CC(C)=CCCC(C)=CCCC(C)=CCO", "note": "[farnesol]", "values": [{"measurement": "sensitization to polymyxin B", "setting": "[5]", "result": "sensitized Escherichia coli to polymyxin B"}, {"measurement": "intracellular accumulation of ethidium bromide by live cells", "setting": "[4]", "result": "promoted the intracellular accumulation"}]}
